According to US5849743A, “Quinoxalines and drugs prepared therefrom” (BASF Aktiengesellschaft, priority 1997, dated 1998):

Target: AMPA receptors
Assay: Binding of 3H-AMPA to rat cerebral membrane material
Details: displacement of 3H-AMPA, membrane material from rat cerebra, incubated on ice for 60 minutes
Description: The pharmacological activity of the compounds I according to the invention was investigated on isolated membrane material from rat brains. For this purpose, the membrane material was incubated in the presence of the substances according to the invention with the radiolabeled substances ^3 H-2-amino-3-hydroxy-5-methyl-4-isoxazolepropionic acid (^3 H-AMPA), ^3 H-5,7-dichlorokynurenic acid or ^3 H-kainate. During this the said radioligands bind in each case to the glutamate receptors specific for them, ie. to AMPA receptors, (^3 H-5,7-dichlorokynurenic acid-binding) NMDA receptors and kainate receptors respectively. After the incubation, the membranes with the receptor-bound radioligands were separated from the free radioligands, and the radioactivity associated with the membranes as measured by liquid scintillation counting. The concentration of receptor-bound ligands, and the extent of displacement of a given radioligand by particular concentrations of the compounds I according to the invention, can be determined from the radioactivity of the membranes. […]

Compound | Ki
O=C(NCc1ccn(-c2cc3[nH]c(=O)c(=O)[nH]c3cc2[N+](=O)[O-])c1)c1ccncc1 [Example 3, acetate] | < 10 µM
O=C(O)Cn1c(=O)c(=O)[nH]c2cc([N+](=O)[O-])c(-n3ccc(CN4CCCCC4)c3)cc21 [Example 14, 1-Carboxymethyl-6-nitro-7-(3-((1-piperidinyl)methyl)-1-pyrrolyl)quinoxaline-2,3(1H,4H)-dione] | < 10 µM
